Test results reported in ChEMBL document CHEMBL5370535, “Thiazolyl hydrazineylidenyl indolones as unique potential multitargeting broad-spectrum antimicrobial agents” (Eur J Med Chem, 2023).
Values after ≈ are worked out from the molar mass of the structure shown. Active and inactive are the calls of the source. The rule behind the calls is not given here.

Key:
[1] = tested on: Staphylococcus aureus; experiment: Bactericidal activity against methicillin-resistant Staphylococcus aureus assessed as increase in apoptotic cells at 4 times MIC by fluorescence microscopic analysis; type: functional, organism-based; settings: time <= 250.0 min
[2] = tested on: Cell membrane; experiment: Induction of cell membrane permeability in Staphylococcus aureus assessed as increase in fluorescence intensity measured upto 135 mins by propidium iodide staining based fluorescence assay; type: subcellular
[3] = tested on: Staphylococcus aureus; experiment: Induction of morphological changes in methicillin-resistant Staphylococcus aureus assessed as cracking of cells at 4 times MIC incubated for 4 hrs by scanning electron microscopic analysis; type: functional, organism-based
[4] = tested on: Staphylococcus aureus; experiment: Antibiofilm activity against methicillin-resistant Staphylococcus aureus assessed as inhibition of biofilm formation at 4 microg/ml incubated for 24 hrs by crystal violet staining based assay; type: functional; design: scale not given: the % may be the effect or the level left; settings: dose 4 µg/ml
[5] = Cytotoxicity against human BEAS-2B cells assessed as survival rate at 0.5 to 64 microg/ml incubated for 24 hrs by MTT assay; type: toxicity, cell-based; settings: at 0.5 to 64 µg/mL, dose 0.5-64 µg/ml, read-out: Activity
[6] = tested on: Staphylococcus aureus; experiment: Bactericidal activity against methicillin-resistant Staphylococcus aureus assessed as increase in apoptotic cells by measuring red fluorescence intensity at 4 times MIC measured upto 250 min by fluorescence microscopic analysis; type: functional, organism-based
[7] = tested on: Candida albicans; experiment: Antifungal activity against Candida albicans ATCC 90023 assessed as inhibition of fungal growth incubated for 24 hrs by CLSI based two serial dilution assay; type: functional
[8] = tested on: Enterococcus faecalis; experiment: Antibacterial activity against Enterococcus faecalis assessed as bacterial growth inhibition incubated for 24 hrs by CLSI based two serial dilution assay; type: functional
[9] = tested on: Staphylococcus aureus; experiment: Antibacterial activity against Staphylococcus aureus 25923 assessed as bacterial growth inhibition incubated for 24 hrs by CLSI based two serial dilution assay; type: functional
[10] = tested on: Staphylococcus aureus; experiment: Antibacterial activity against methicillin-resistant Staphylococcus aureus assessed as bacterial growth inhibition incubated for 24 hrs by CLSI based two serial dilution assay; type: functional
[11] = tested on: Staphylococcus aureus; experiment: Antibacterial activity against Staphylococcus aureus assessed as bacterial growth inhibition incubated for 24 hrs by CLSI based two serial dilution assay; type: functional
[12] = tested on: Staphylococcus aureus; experiment: Antibacterial activity against Staphylococcus aureus 29213 assessed as bacterial growth inhibition incubated for 24 hrs by CLSI based two serial dilution assay; type: functional
[13] = tested on: Calf thymus DNA; experiment: Binding affinity to calf thymus DNA by UV/vis spectrophotometric analysis; type: nucleic-acid assay; settings: Bos taurus; dose 4.0 10^-5mol/L
[14] = tested on: Staphylococcus aureus; experiment: Antibiofilm activity against methicillin-resistant Staphylococcus aureus assessed as biofilm eradication incubated for 24 hrs by crystal violet staining based assay; type: functional, organism-based; settings: dose 1-16 µg/ml
[15] = tested on: Escherichia coli; experiment: Antibacterial activity against Escherichia coli 25922 assessed as bacterial growth inhibition incubated for 24 hrs by CLSI based two serial dilution assay; type: functional
[16] = tested on: Acinetobacter baumannii; experiment: Antibacterial activity against Acinetobacter baumannii assessed as bacterial growth inhibition incubated for 24 hrs by CLSI based two serial dilution assay; type: functional
[17] = tested on: Pseudomonas aeruginosa; experiment: Antibacterial activity against Pseudomonas aeruginosa ATCC 27853 assessed as bacterial growth inhibition incubated for 24 hrs by CLSI based two serial dilution assay; type: functional
[18] = tested on: Aspergillus fumigatus; experiment: Antifungal activity against Aspergillus fumigatus assessed as inhibition of fungal growth incubated for 24 hrs by CLSI based two serial dilution assay; type: functional
[19] = tested on: Staphylococcus aureus; experiment: Bactericidal activity against methicillin-resistant Staphylococcus aureus assessed as reduction in viable bacteria at 4 times MIC measured at 30 mins by fluorescence microscopic analysis; type: functional, organism-based
[20] = tested on: Staphylococcus aureus; experiment: Antibiofilm activity against methicillin-resistant Staphylococcus aureus assessed as decrease in metabolic activity at 1 to 16 microg/ml measured for 6 hrs by alamar blue staining based assay; type: functional, organism-based; settings: dose 1-16 µg/ml
[21] = tested on: Calf thymus DNA; experiment: Binding affinity to calf thymus DNA assessed as compound-DNA complex formation at 4 10^-5mol/L by UV/vis spectrophotometric analysis; type: nucleic-acid assay; settings: Bos taurus
[22] = tested on: Staphylococcus aureus; experiment: Induction of morphological changes in methicillin-resistant Staphylococcus aureus assessed as membrane deformations at 4 times MIC incubated for 4 hrs by scanning electron microscopic analysis; type: functional, organism-based
[23] = tested on: Pseudomonas aeruginosa; experiment: Antibacterial activity against Pseudomonas aeruginosa assessed as bacterial growth inhibition incubated for 24 hrs by CLSI based two serial dilution assay; type: functional
[24] = tested on: Candida albicans; experiment: Antifungal activity against Candida albicans assessed as inhibition of fungal growth incubated for 24 hrs by CLSI based two serial dilution assay; type: functional
[25] = tested on: Calf thymus DNA; experiment: Competitive binding affinity to calf thymus DNA assessed as compound-DNA complex formation upto 2 10^-5mol/L in presence of neutral red by UV/vis spectrophotometric analysis; type: nucleic-acid assay; settings: Bos taurus
[26] = tested on: Candida parapsilosis; experiment: Antifungal activity against Candida parapsilosis ATCC 22019 assessed as inhibition of fungal growth incubated for 24 hrs by CLSI based two serial dilution assay; type: functional; settings: Lodderomyces parapsilosis
[27] = tested on: Klebsiella pneumoniae; experiment: Antibacterial activity against Klebsiella pneumoniae assessed as bacterial growth inhibition incubated for 24 hrs by CLSI based two serial dilution assay; type: functional
[28] = tested on: Cell membrane; experiment: Induction of membrane depolarization in methicillin-resistant Staphylococcus aureus assessed as increase in fluorescence intensity at 1 times MIC by DiSC35 dye-based fluorescence assay; type: subcellular; settings: time 1.0 hrs, TDE = time-dependent effect
[29] = tested on: Cell membrane; experiment: Induction of cell membrane disruption in methicillin-resistant Staphylococcus aureus assessed as increase in protein leakage at 16 microg/ml incubated for 8 hrs; type: subcellular; settings: dose 16.0 µg/ml
[30] = Hemolytic activity in human RBC assessed as hemolysis at 64 microg/ml incubated for 2 hrs by double-dilution analysis; type: toxicity, cell-based, Erythrocyte; settings: red blood cells (erythrocytes), at 64 µg/mL, read-out: Activity
[31] = tested on: Escherichia coli; experiment: Antibacterial activity against Escherichia coli assessed as bacterial growth inhibition incubated for 24 hrs by CLSI based two serial dilution assay; type: functional
[32] = tested on: Candida tropicalis; experiment: Antifungal activity against Candida tropicalis assessed as inhibition of fungal growth incubated for 24 hrs by CLSI based two serial dilution assay; type: functional
[33] = tested on: Cell membrane; experiment: Induction of membrane depolarization in methicillin-resistant Staphylococcus aureus assessed as increase in fluorescence intensity at 4 times MIC measured at 5 min by DiSC35 dye-based fluorescence assay; type: subcellular

Structure (SMILES): CCCCN1C(=O)/C(=N\Nc2nccs2)c2ccccc21
- Activity [1]: Active
- Activity [2]: Active
- Activity [3]: Active
- Activity [4]: 30%
- viability at 24 h [5]: > 75%
- Activity [6]: inactive
- MIC [7]: 0.5 µM (≈ 0.15 µg/mL)
- MIC [8]: 0.5 µM (≈ 0.15 µg/mL)
- MIC [9]: 0.25 µM (≈ 0.0751 µg/mL)
- MIC [10]: 0.25 µM (≈ 0.0751 µg/mL)
- MIC [11]: 0.5 µM (≈ 0.15 µg/mL)
- MIC [12]: 0.25 µM (≈ 0.0751 µg/mL)
- Activity [13]: Dose-Dependent Effect
- Activity [14]: Dose-Dependent Effect
- MIC [15]: 0.25 µM (≈ 0.0751 µg/mL)
- MIC [16]: 1 µM (≈ 0.3 µg/mL)
- MIC [17]: 0.5 µM (≈ 0.15 µg/mL)
- MIC [18]: 1 µM (≈ 0.3 µg/mL)
- Activity [19]: Active
- Activity [20]: Active
- Activity [21]: Active
- Activity [22]: Active
- MIC [23]: 0.5 µM (≈ 0.15 µg/mL)
- MIC [24]: 0.5 µM (≈ 0.15 µg/mL)
- Activity [25]: Active
- MIC [26]: 0.5 µM (≈ 0.15 µg/mL)
- MIC [27]: 0.25 µM (≈ 0.0751 µg/mL)
- Activity [28]: Tde
- Activity [29]: Active
- hemolysis at 2 h, 64 µg/mL [30]: < 5%
- MIC [31]: 0.5 µM (≈ 0.15 µg/mL)
- MIC [32]: 0.5 µM (≈ 0.15 µg/mL)
- Activity [33]: Active
